These are literature values, as cited in patent US20250213503A1, “TREATMENT OF CANCER WITH S1P RECEPTOR AGONISTS” (PRIOTHERA SAS, priority 2022, published 2025).

The data set deals with S1PR1 (Homo sapiens, UniProt P21453).
S1PR1, sequence (P21453 whole entry, species assumed): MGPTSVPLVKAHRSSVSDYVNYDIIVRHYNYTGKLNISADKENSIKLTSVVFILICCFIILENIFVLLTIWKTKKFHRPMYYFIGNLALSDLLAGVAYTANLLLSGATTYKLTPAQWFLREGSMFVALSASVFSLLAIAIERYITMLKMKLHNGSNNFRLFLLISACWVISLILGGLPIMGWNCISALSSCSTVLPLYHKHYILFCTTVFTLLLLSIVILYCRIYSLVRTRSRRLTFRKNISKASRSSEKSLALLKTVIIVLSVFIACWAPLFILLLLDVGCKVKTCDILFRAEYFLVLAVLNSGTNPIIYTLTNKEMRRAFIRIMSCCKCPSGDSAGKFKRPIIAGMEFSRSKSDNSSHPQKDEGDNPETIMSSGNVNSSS

With `CCCCCCCCc1ccc(CCC(N)(CO)CO)cc1` [FTY720], the “selectivity for S1PR1 versus S1PR3-5” value is reported as “poor selectivity for S1PR1 versus S1PR3-5”.
